Test systems include SK-MEL-28 melanoma; ACHN renal; HS 578T breast; RXF 393 renal; HCC-2998 colon; UACC-257 melanoma; MCF7 breast; MDA-MB-231 breast.
Common to all, as to assay: inhibition of tumour cell growth, NCI panel, 48 h

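Grown in 96-well plates, cells were treated for 48 hours with each compound at five concentrations. Insufficient inhibition: endpoint recorded as highest concentration tested. GI50 is the concentration that inhibits growth by half. Definition used: TGI = concentration required for complete inhibition of growth.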

`CCN(CC)c1ccc(N=C2C=C(C(=O)Nc3ccc(S(C)(=O)=O)cc3)C(=O)c3ccccc32)c(C)c1`: the GI50 in the experiment on SK-MEL-28 melanoma is greater than 100 µM; with ACHN renal, greater than 100 µM; with HS 578T breast, 1.87 µM; in the experiment on RXF 393 renal, greater than 100 µM; in the experiment with HCC-2998 colon it was greater than 100 µM; in the experiment with UACC-257 melanoma, greater than 100 µM. The GI50 is greater than 100000 nM in the experiment on MCF7 breast and 4.53 µM in the experiment with MDA-MB-231 breast. The TGI with SK-MEL-28 melanoma, in the experiment with ACHN renal, in the experiment on HS 578T breast, with RXF 393 renal, in the experiment on HCC-2998 colon and in the experiment on UACC-257 melanoma was greater than 100 µM throughout. The TGI in the experiment on MCF7 breast and with MDA-MB-231 breast was greater than 100 µM throughout.
With `COc1ccc(Nc2ncccc2/C=C/C(=O)c2cc(OC)c(OC)c(OC)c2)cc1`, the GI50 with SK-MEL-28 melanoma was 1.37 µM; in the experiment with ACHN renal, 1.55 µM; in the experiment on HS 578T breast, 2.68 µM; in the experiment on RXF 393 renal, 1.49 µM; in the experiment with HCC-2998 colon it was 1.68 µM; in the experiment with UACC-257 melanoma it was 1.53 µM. Moreover, the GI50 in the experiment on MCF7 breast was 695 nM; in the experiment on MDA-MB-231 breast, 1.94 µM. In addition, the TGI stood at 2.66 µM in the experiment on SK-MEL-28 melanoma; 2.96 µM in the experiment on ACHN renal; 9.6 µM in the experiment on HS 578T breast; 2.82 µM in the experiment on RXF 393 renal; 3.09 µM with HCC-2998 colon; 2.92 µM in the experiment with UACC-257 melanoma. For the same compound, the TGI in the experiment with MCF7 breast was 2.09 µM; in the experiment on MDA-MB-231 breast, 5.74 µM.
`COC(=O)Nc1nc2ccc(Oc3ccc(NC(=O)Nc4cccc(Br)c4)cc3)cc2[nH]1`: the GI50 in the experiment on SK-MEL-28 melanoma is 2.53 µM; in the experiment on ACHN renal it was 5.53 µM; in the experiment with HS 578T breast it was 3.16 µM; in the experiment with RXF 393 renal, 1.92 µM; in the experiment with HCC-2998 colon, 6.04 µM; with UACC-257 melanoma, 1.95 µM. For the same compound, the GI50 was 220 nM with MCF7 breast and 5.74 µM in the experiment on MDA-MB-231 breast. Besides, the TGI in the experiment on SK-MEL-28 melanoma was 7.7 µM; with ACHN renal, greater than 25 µM; in the experiment on HS 578T breast it was greater than 19.8 µM; in the experiment with RXF 393 renal it was 11.9 µM; in the experiment on HCC-2998 colon, greater than 25 µM; in the experiment with UACC-257 melanoma, greater than 16 µM. For the same compound, the TGI in the experiment with MCF7 breast was 3.77 µM; in the experiment with MDA-MB-231 breast, greater than 25 µM.
Consider `C=C(C)C(=O)OC1CC2(C)OC2CC(OC(C)=O)/C(C)=C/C2OC(=O)C(=C)C21` (stereo not drawn), for which the TGI with SK-MEL-28 melanoma worked out at 1.94 µM; with ACHN renal, 3.34 µM; with HS 578T breast, 30.6 µM; in the experiment on RXF 393 renal, 4.64 µM; in the experiment with HCC-2998 colon it was 15.1 µM; with UACC-257 melanoma, 18.5 µM. The TGI turned out to be 12.2 µM in the experiment on MCF7 breast and 18.5 µM in the experiment with MDA-MB-231 breast.
Turning to `Cc1ccc2c[c]1[Hg][CH2]COS2(=O)=O`, the GI50 was 16.4 µM with SK-MEL-28 melanoma; 16.2 µM in the experiment with ACHN renal; 23.7 µM in the experiment on HS 578T breast; 15.9 µM with RXF 393 renal; 15.7 µM with HCC-2998 colon; 16.4 µM in the experiment with UACC-257 melanoma. The GI50 in the experiment on MCF7 breast is 17900 nM; in the experiment with MDA-MB-231 breast, 17.5 µM. The TGI with SK-MEL-28 melanoma came to 29.9 µM; in the experiment with ACHN renal, 29.7 µM; with HS 578T breast it was 58.1 µM; in the experiment on RXF 393 renal it was 29.3 µM; with HCC-2998 colon, 34.5 µM; in the experiment on UACC-257 melanoma it was 29.9 µM. The values for the TGI in the experiment with MCF7 breast and in the experiment with MDA-MB-231 breast were 39.4 µM and 32 µM, respectively.
On to `O=C(Nc1c(Cl)cc([N+](=O)[O-])cc1Cl)C(=O)C1C(=O)NC(=S)NC1=O`, for which the TGI in the experiment with SK-MEL-28 melanoma, in the experiment on ACHN renal, in the experiment on HS 578T breast, with RXF 393 renal, in the experiment on HCC-2998 colon and in the experiment with UACC-257 melanoma was greater than 100 µM in each case. Further, the TGI in the experiment with MCF7 breast and in the experiment on MDA-MB-231 breast was greater than 100 µM each time.
As to `Cc1ccccc1S(=O)(=O)N1[C@H](c2ccc(Cl)cc2)C(C(=O)N[C@@H](Cc2ccccc2)C(N)=O)=C[C@@H]1C(C)(C)C`, the GI50 is 5.34 µM in the experiment on SK-MEL-28 melanoma; 2.95 µM with ACHN renal; 8.64 µM in the experiment with HS 578T breast; 5.01 µM with RXF 393 renal; 6.48 µM in the experiment on HCC-2998 colon; 8.31 µM in the experiment on UACC-257 melanoma. In addition, the figures for the GI50 with MCF7 breast and in the experiment with MDA-MB-231 breast were 2170 nM and 6.94 µM, respectively. Moreover, the TGI in the experiment on SK-MEL-28 melanoma came to 12 µM; in the experiment on ACHN renal, 9.83 µM; in the experiment with HS 578T breast, 26.4 µM; with RXF 393 renal, 11.9 µM; in the experiment with HCC-2998 colon, 13.5 µM; in the experiment with UACC-257 melanoma it was 17.2 µM. In addition, the figures for the TGI in the experiment on MCF7 breast and in the experiment on MDA-MB-231 breast were 9.67 µM and 14.3 µM, respectively.
Consider `O=C(Nc1ccc(Cl)cc1)c1cc2c(cc1O)[nH]c1ccccc12`, for which the GI50 in the experiment with SK-MEL-28 melanoma was 4.41 µM; in the experiment on ACHN renal it was 3.11 µM; in the experiment with HS 578T breast, 3.08 µM; in the experiment with RXF 393 renal, 5.14 µM; in the experiment with HCC-2998 colon, 2 µM; in the experiment on UACC-257 melanoma, 2.48 µM. The figures for the GI50 in the experiment on MCF7 breast and in the experiment with MDA-MB-231 breast were 2560 nM and 2.24 µM, respectively. Also, the TGI in the experiment on SK-MEL-28 melanoma is 15.5 µM; in the experiment on ACHN renal it was 11.1 µM; with HS 578T breast, 14.5 µM; in the experiment on RXF 393 renal it was 20.6 µM; in the experiment on HCC-2998 colon it was 5.27 µM; in the experiment with UACC-257 melanoma it was 6.66 µM. The TGI in the experiment on MCF7 breast stood at 10 µM; in the experiment with MDA-MB-231 breast, 6.94 µM.
Take `CC1=C(C(=O)Nc2ccc3[nH]ncc3c2)C(c2ccc(F)cc2)NC(=O)N1` (stereo not drawn): the GI50 is greater than 25 µM in the experiment on SK-MEL-28 melanoma; greater than 25 µM in the experiment on ACHN renal; 7.41 µM in the experiment with HS 578T breast; greater than 14.6 µM in the experiment on RXF 393 renal; greater than 25 µM in the experiment with HCC-2998 colon; greater than 25 µM in the experiment with UACC-257 melanoma. In addition, the GI50 is greater than 25000 nM with MCF7 breast and greater than 25 µM in the experiment on MDA-MB-231 breast. In addition, the TGI in the experiment on SK-MEL-28 melanoma, in the experiment on ACHN renal, in the experiment with HS 578T breast, in the experiment on RXF 393 renal, with HCC-2998 colon and with UACC-257 melanoma was greater than 25 µM throughout. Further, the TGI in the experiment with MCF7 breast and with MDA-MB-231 breast was greater than 25 µM throughout.

These data come from PubChem BioAssay (NCI).
